From US20160051665A1, “INDUCTION OF IMMUNE RESPONSE” (priority 2010, published 2016)

Legend:
[1] = biological target: T1, glucosidase I (Homo sapiens, UniProt Q13724); conditions: cited from earlier work
T1 sequence (Q13724 1-837): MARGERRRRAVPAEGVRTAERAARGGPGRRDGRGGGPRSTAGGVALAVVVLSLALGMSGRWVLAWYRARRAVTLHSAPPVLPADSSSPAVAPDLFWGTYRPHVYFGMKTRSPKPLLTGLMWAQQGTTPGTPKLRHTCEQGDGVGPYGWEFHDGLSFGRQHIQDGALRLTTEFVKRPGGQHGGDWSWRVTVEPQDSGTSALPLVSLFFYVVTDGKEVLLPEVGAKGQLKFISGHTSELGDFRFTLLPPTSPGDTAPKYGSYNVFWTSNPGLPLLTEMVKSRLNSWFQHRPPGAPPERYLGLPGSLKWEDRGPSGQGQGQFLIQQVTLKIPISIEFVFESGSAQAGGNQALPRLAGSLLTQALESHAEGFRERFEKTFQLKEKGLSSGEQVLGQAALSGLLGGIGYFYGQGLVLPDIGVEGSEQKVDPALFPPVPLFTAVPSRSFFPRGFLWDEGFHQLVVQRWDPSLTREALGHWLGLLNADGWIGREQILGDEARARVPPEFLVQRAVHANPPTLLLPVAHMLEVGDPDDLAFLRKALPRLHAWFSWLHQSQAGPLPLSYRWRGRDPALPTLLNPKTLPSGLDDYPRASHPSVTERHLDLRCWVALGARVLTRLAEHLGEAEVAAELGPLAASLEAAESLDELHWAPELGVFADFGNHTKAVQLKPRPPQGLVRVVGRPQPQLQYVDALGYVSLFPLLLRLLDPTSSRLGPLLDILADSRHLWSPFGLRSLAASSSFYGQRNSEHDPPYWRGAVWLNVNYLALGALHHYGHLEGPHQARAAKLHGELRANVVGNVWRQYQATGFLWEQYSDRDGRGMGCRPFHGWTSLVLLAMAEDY

[2] = test system: oligosaccharide addition; conditions: cited from earlier work
[3] = test system: woodchuck hepatitis virus (WHV); conditions: previous study (ref. 11); cited from earlier work
[4] = test system: HLA-A2 expressing T2 target cells; test: interferon-γ ELISpot: peptide-primed CTLs against peptide-pulsed T2 cells; type: cell-based, human; conditions: PBMCs of healthy HLA-A2 donors stimulated in vitro with peptide; FIG. 2A
Experimental: Heparinized blood from healthy HLA-A2 donors was purchased from Research Blood Components, LLC, (Brighton, Mass.). Peripheral blood mononuclear cells were purified and cultured as described (13, 21). After initial stimulation with synthetic peptide, T cells were re-stimulated with CD4/CD8 T cell depleted autologous monocytes pulsed with synthetic peptide at 10 μg/ml for 5 days. IL-2 treatment and in vitro re-stimulation were repeated thrice prior to use of in vitro expanded T cells in ELISpot assays.
In vitro expanded CTLs were used as effectors in ELISpot assays to assess antigen stimulated interferon-γ release according to the manufacturer's instructions (BD-Pharmingen, San Jose, Calif.). Target cells were HepG2 human hepatoma cells (HBV negative; American Type Culture Collection) or HBV-containing HepG2.2.15 cells (22). […]
Peptides presented on the surface of a cell in the context of the MHC class I complex should be recognized with high sensitivity upon incubation with cognate peptide-primed CTLs, with specific killing of the target cells. […] Target cell recognition was quantified by interferon-γ ELISpot assay.
The ability of in vitro generated CTLs to recognize and secrete interferon-γ was evaluated by ELISpot assay. […] The P value was calculated from a Student's t-Test analysis of experimental results.

| Molecule | prevention of oligosaccharide addition [2] | elicitation of specific CTLs that recognize T2 target cells [4] | also measured |
| --- | --- | --- | --- |
| O[C@H]1[C@H](O)[C@@H](O)CN2CC[C@H](O)[C@H]12 [Castanospermine] | does not | – | potency as inhibitor of glucosidase I relative to deoxynojirimycin [1]: more potent inhibitors of glucosidase I than deoxynojirimycin |
| CCCCCCCCCN1C[C@H](O)[C@@H](O)[C@H](O)[C@H]1CO [N-nonyl deoxynojirimycin] | – | – | antiviral activity in woodchucks [3]: antiviral activity had previously been observed |
| OC[C@H]1NC[C@H](O)[C@@H](O)[C@@H]1O [deoxynojirimycin] | prevents oligosaccharide addition some fraction of the time | – | – |
| KPSDGDCTC [D-peptide, de-N-glycosylated 'D' substituted HBs peptide] | – | effective elicitors of specific CTLs | – |
| KPSDGNCTC [N-peptide] | – | effective elicitors of specific CTLs | – |
